Assay results published in ChEMBL document CHEMBL5625249, “Optimization and antifungal activity of quinoline derivatives linked to chalcone moiety combined with FLC against Candida albicans” (Eur J Med Chem, 2023).
Values after ≈ are worked out from the molar mass of the structure shown. Active and inactive are the calls of the source. The calls are words filed in the database; no cut-off is given here.

Assays:
Candida albicans [1] = assay: Antifungal activity against clinical FLC-resistant Candida albicans 187 measured after 24 hrs by microdilution method; type: functional
Candida albicans [2] = assay: In vivo antifungal activity against FLC-resistant Candida albicans ATCC 14053 infected in Balb/c mouse assessed as reduction in severity of lesions in lungs at 2 mg/kg, ig measured after 6 days by H and E staining based histopathological analysis; type: functional, organism-based; conditions: time 6.0 day
Candida albicans [3] = assay: Antifungal activity against clinical FLC-resistant Candida albicans 3816 measured after 24 hrs by microdilution method; type: functional
Candida albicans [4] = assay: Antifungal activity against FLC-resistant Candida albicans ATCC 14053 cultured in spider medium assessed as inhibition of hyphal formation at 1 ug/ml measured after 2 hrs by inverted microscopy; type: functional, organism-based; conditions: dose 1.0 µg/ml
Candida albicans [5] = assay: Antifungal activity against clinical FLC-resistant Candida albicans 3511 measured after 24 hrs by microdilution method; type: functional
Candida albicans [6] = assay: In vivo antifungal activity against FLC-resistant Candida albicans ATCC 14053 infected in Balb/c mouse assessed as increase in organ coefficients of spleen at 2 mg/kg, ig measured after 6 days; type: functional, organism-based; conditions: time 6.0 day
Candida albicans [7] = assay: In vivo antifungal activity against FLC-resistant Candida albicans ATCC 14053 infected in Balb/c mouse assessed as restoration of normal kidney morphology at 2 mg/kg, ig measured after 6 days by H and E staining based histopathological analysis; type: functional, organism-based; conditions: time 6.0 day
Candida albicans [8] = assay: Antifungal activity against FLC-resistant Candida albicans ATCC 14053 assessed as inhibition of hyphal formation by measuring down regulation of RAS1 gene expression at 8 ug/ml measured after 16 to 18 hrs by qRT-PCR analysis; type: functional, organism-based; conditions: dose 8.0 µg/ml, time 16-18 hrs
Candida albicans [9] = assay: Antifungal activity against clinical FLC-resistant Candida albicans 799 measured after 24 hrs by microdilution method; type: functional
Candida albicans [10] = assay: In vivo antifungal activity against FLC-resistant Candida albicans ATCC 14053 infected in Balb/c mouse assessed as removal of colonized fungi at 2 mg/kg, ig measured after 6 days by H and E staining based histopathological analysis; type: functional, organism-based; conditions: time 6.0 day
Candida albicans [11] = assay: Antifungal activity against FLC-resistant Candida albicans ATCC 14053 measured after 24 hrs by microdilution method; type: functional
Candida albicans [12] = assay: Antifungal activity against clinical FLC-resistant Candida albicans 4574 measured after 24 hrs by microdilution method; type: functional
Candida albicans [13] = assay: In vivo antifungal activity against FLC-resistant Candida albicans ATCC 14053 infected in Balb/c mouse assessed as reduction in severity of lesions in kidney at 2 mg/kg, ig measured after 6 days by H and E staining based histopathological analysis; type: functional, organism-based; conditions: time 6.0 day
Candida albicans [14] = assay: In vivo antifungal activity against FLC-resistant Candida albicans ATCC 14053 infected in Balb/c mouse assessed as survival rate at 2 mg/kg, ig measured daily for 6 days (Rvb < 20%); type: functional; conditions: ATCC 14053, po, 144 h, time 6 day
Candida albicans [15] = assay: Antifungal activity against FLC-resistant Candida albicans ATCC 14053 assessed as inhibition of hyphal formation by measuring down regulation of ECE1 gene expression at 8 ug/ml measured after 16 to 18 hrs by qRT-PCR analysis; type: functional, organism-based; conditions: dose 8.0 µg/ml, time 16-18 hrs
Candida albicans [16] = assay: Antifungal activity against FLC-resistant Candida albicans ATCC 14053 assessed as inhibition of hyphal formation by measuring down regulation of HWP1 gene expression at 8 ug/ml measured after 16 to 18 hrs by qRT-PCR analysis; type: functional, organism-based; conditions: dose 8.0 µg/ml, time 16-18 hrs
[17] = Toxicity in Balb/c mouse assessed as death at 2 mg/kg, ig measured daily for 6 days; type: organism-based; conditions: in vivo, po, 144 h, time 6 day
Candida albicans [18] = assay: In vivo antifungal activity against FLC-resistant Candida albicans ATCC 14053 infected in Balb/c mouse assessed as reduction in infiltration of inflammatory cells at 2 mg/kg, ig measured after 6 days by H and E staining based histopathological analysis; type: functional, organism-based; conditions: time 6.0 day
Candida albicans [19] = assay: Antifungal activity against clinical FLC-resistant Candida albicans 602 measured after 24 hrs by microdilution method; type: functional
Candida albicans [20] = assay: Antifungal activity against FLC-resistant Candida albicans ATCC 14053 at 1 ug/mL measured over 48 hrs by time-killing assay; type: functional, organism-based; conditions: dose 1.0 µg/ml
Candida albicans [21] = assay: Antifungal activity against FLC-resistant Candida albicans ATCC 14053 cultured in SD +10% FBS liquid medium assessed as inhibition of hyphal formation at 1 ug/ml measured after 2 hrs by inverted microscopy; type: functional, organism-based; conditions: dose 1.0 µg/ml
Candida albicans [22] = assay: Antifungal activity against clinical FLC-resistant Candida albicans 808 measured after 24 hrs by microdilution method; type: functional
[23] = Toxicity in Balb/c mouse assessed as weight loss at 2 mg/kg, ig measured daily for 6 days; type: organism-based; conditions: in vivo, po, 144 h, time 6 day
Candida albicans [24] = assay: Antifungal activity against FLC-resistant Candida albicans ATCC 14053 assessed as inhibition of hyphal formation by measuring down regulation of ALS3 gene expression at 8 ug/ml measured after 16 to 18 hrs by qRT-PCR analysis; type: functional, organism-based; conditions: dose 8.0 µg/ml, time 16-18 hrs
Candida albicans [25] = assay: In vivo antifungal activity against FLC-resistant Candida albicans ATCC 14053 infected in Balb/c mouse assessed as reduction in renal injury at 2 mg/kg, ig measured after 6 days by H and E staining based histopathological analysis; type: functional, organism-based; conditions: time 6.0 day
Candida albicans [26] = assay: In vivo antifungal activity against FLC-resistant Candida albicans ATCC 14053 infected in Balb/c mouse assessed as increase in organ coefficients of thymus at 2 mg/kg, ig measured after 6 days; type: functional, organism-based; conditions: time 6.0 day
Candida albicans [27] = assay: Antifungal activity against Clinical FLC-resistant Candida albicans 23 measured after 24 hrs by microdilution method; type: functional
[28] = Toxicity in Balb/c mouse infected with FLC-resistant Candida albicans ATCC 14053 assessed as weight loss at 2 mg/kg, ig measured daily for 6 days; type: organism-based; conditions: in vivo, po, 144 h, time 6 day
Candida albicans [29] = assay: Antifungal activity against FLC-resistant Candida albicans ATCC 14053 assessed as inhibition of hyphal formation by measuring down regulation of CYR1 gene expression at 8 ug/ml measured after 16 to 18 hrs by qRT-PCR analysis; type: functional, organism-based; conditions: dose 8.0 µg/ml, time 16-18 hrs
Candida albicans [30] = assay: Antifungal activity against clinical FLC-resistant Candida albicans 4508 measured after 24 hrs by microdilution method; type: functional
Candida albicans [31] = assay: Antifungal activity against FLC-sensitive Candida albicans SC5314 measured after 24 hrs by microdilution method; type: functional
Candida albicans [32] = assay: In vivo antifungal activity against FLC-resistant Candida albicans ATCC 14053 infected in Balb/c mouse assessed as reduction in kidney fungal load at 2 mg/kg, ig measured after 6 days; type: functional, organism-based; conditions: time 6.0 day
Candida albicans [33] = assay: Antifungal activity against FLC-resistant Candida albicans ATCC 14053 assessed as reduction in intracellular ATP level at 1 ug/ml measured after 16 to 18 hrs by luminescence assay; type: functional, organism-based; conditions: dose 1.0 µg/ml, time 16-18 hrs
Candida albicans [34] = assay: In vivo antifungal activity against FLC-resistant Candida albicans ATCC 14053 infected in Balb/c mouse assessed as reduction in lung fungal load at 2 mg/kg, ig measured after 6 days; type: functional, organism-based; conditions: time 6.0 day
Candida albicans [35] = assay: Induction of mitochondrial membrane potential loss in FLC-resistant Candida albicans ATCC 14053 at 1 ug/mL measured after 16 to 18 hrs by JC-1 staining based fluorescence assay; type: functional, organism-based; conditions: dose 1.0 µg/ml, time 16-18 hrs
Candida albicans [36] = assay: Antifungal activity against clinical FLC-resistant Candida albicans 550 measured after 24 hrs by microdilution method; type: functional
Candida albicans [37] = assay: Antifungal activity against FLC-resistant Candida albicans ATCC 14053 assessed as inhibition of hyphal formation by measuring down regulation of EFG1 gene expression at 8 ug/ml measured after 16 to 18 hrs by qRT-PCR analysis; type: functional, organism-based; conditions: dose 8.0 µg/ml, time 16-18 hrs
Candida albicans [38] = assay: In vivo antifungal activity against FLC-resistant Candida albicans ATCC 14053 infected in Balb/c mouse assessed as restoration of normal lung morphology at 2 mg/kg, ig measured after 6 days by H and E staining based histopathological analysis; type: functional, organism-based; conditions: time 6.0 day
Candida albicans [39] = assay: Antifungal activity against clinical FLC-resistant Candida albicans 800 measured after 24 hrs by microdilution method; type: functional
Candida albicans [40] = assay: Induction of reactive oxygen species production in FLC-resistant Candida albicans ATCC 14053 at 1 ug/mL measured after 16 to 18 hrs by DCFH-DA staining based fluorescence assay; type: functional, organism-based; conditions: dose 1.0 µg/ml, time 16-18 hrs
Candida albicans [41] = assay: Antifungal activity against FLC-resistant Candida albicans ATCC 10231 measured after 24 hrs by microdilution method; type: functional
Candida albicans [42] = assay: In vivo antifungal activity against FLC-resistant Candida albicans ATCC 14053 infected in Balb/c mouse assessed as restoration of normal glomeruli morphology at 2 mg/kg, ig measured after 6 days by H and E staining based histopathological analysis; type: functional, organism-based; conditions: time 6.0 day
Candida albicans [43] = assay: Antifungal activity against clinical FLC-resistant Candida albicans 381 measured after 24 hrs by microdilution method; type: functional

## OC(Cn1cncn1)(Cn1cncn1)c1ccc(F)cc1F [FLUCONAZOLE]
Candida albicans [1]
  MIC80: > 40 µg/mL
Candida albicans [2]
  Activity: inactive
Candida albicans [3]
  MIC80: > 40 µg/mL
Candida albicans [4]
  inhibition: inactive
Candida albicans [5]
  MIC80: > 40 µg/mL
Candida albicans [6]
  Activity: Active
Candida albicans [7]
  Activity: inactive
Candida albicans [8]
  inhibition: Active
Candida albicans [9]
  MIC80: > 40 µg/mL
Candida albicans [10]
  Activity: inactive
Candida albicans [11]
  MIC80: > 40 µg/mL
Candida albicans [12]
  MIC80: > 40 µg/mL
Candida albicans [13]
  Activity: inactive
Candida albicans [14]
  survival at 2 mg/kg: 30%
Candida albicans [15]
  inhibition: Active
Candida albicans [16]
  inhibition: Active
[17]
  Activity: Non-Toxic
Candida albicans [18]
  Activity: inactive
Candida albicans [19]
  MIC80: > 40 µg/mL
Candida albicans [20]
  Activity: Active
Candida albicans [21]
  inhibition: inactive
Candida albicans [22]
  MIC80: > 40 µg/mL
[23]
  Activity: Non-Toxic
Candida albicans [24]
  inhibition: Active
Candida albicans [25]
  Activity: inactive
Candida albicans [26]
  Activity: Active
Candida albicans [27]
  MIC80: > 40 µg/mL
[28]
  Activity: Toxic
Candida albicans [29]
  inhibition: Active
Candida albicans [30]
  MIC80: > 40 µg/mL
Candida albicans [31]
  MIC80: 5.79 µg/mL (≈ 18.9 µM)
Candida albicans [32]
  Activity: Active
Candida albicans [33]
  Activity: Active
Candida albicans [34]
  Activity: inactive
Candida albicans [35]
  Activity: Active
Candida albicans [36]
  MIC80: > 40 µg/mL
Candida albicans [37]
  inhibition: Active
Candida albicans [38]
  Activity: inactive
Candida albicans [39]
  MIC80: > 40 µg/mL
Candida albicans [40]
  Activity: Active
Candida albicans [41]
  MIC80: > 40 µg/mL
Candida albicans [42]
  Activity: inactive
Candida albicans [43]
  MIC80: > 40 µg/mL
